US9322066B2, “Predictors for cancer treatment” (priority 2011, dated 2016)

Test system: relapsed or refractory, rituximab-naive or -sensitive follicular B-cell NHL
Test: Time to next anti-lymphoma therapy, Vc-R vs rituximab study, by biomarker
Assay type: in vivo, human
Design: Median, Time to Next Anti-Lymphoma Therapy / Time to Next Anti-Lymphoma Therapy, Median: unit not given here
From the text: Non-Hodgkin lymphoma (NHL) encompasses several unique malignant lymphoid disease entities that vary in clinical behavior, morphologic appearance, immunologic, and molecular phenotype. […] A randomized, open-label, active-controlled, multicenter, multinational, prospective study to compare the efficacy and safety of the combination of bortezomib and rituximab (Vc-R) to single-agent rituximab in subjects who have relapsed or refractory, rituximab-naive or -sensitive follicular B-cell NHL was performed.
Subjects were centrally randomized to Treatment Groups A (Vc-R) or B (rituximab) in a 1:1 ratio taking into account the following stratification factors: • Follicular Lymphoma International Prognostic Index (FLIPI) score (low [0 or 1 factor], intermediate [2 factors], high [≧3 factors]); • Prior rituximab therapy (yes, no); • Time since last dose of anti-lymphoma therapy (≦1 year, >1 year); • Region (United States/Canada, European Union, Rest of World).
The following clinical endpoints were included in the analysis within each treatment group and an overall comparison was made with the biomarker-related endpoints: Progression-free survival, defined as the interval between the date of randomization and the date of progressive disease (PD) or death, whichever is first reported in the ITT population; overall survival; overall response rate (complete response [CR]+CR unconfirmed [CRu]+partial response [PR]); overall CR rate (CR+CRu); duration of response; time to next anti-lymphoma therapy; and treatment free interval.

[1] = PSMB1/A171S: G/G, >1 year since last anti-lymphoma treatment
[2] = PSMB1/A171S: G/G, Ann Arbor Stage IV
[3] = PSMB1/A171S: G/G, European Union
[4] = PSMB1/A171S: G/G, High Tumor Burden
[5] = PSMB1/A171S: G/G, ≦65 years old
[6] = PSMB1/I208N: T/T, >1 year since last anti-lymphoma treatment
[7] = PSMB1/I208N: T/T, Ann Arbor Stage IV
[8] = PSMB1/I208N: T/T, European Union
[9] = PSMB1/I208N: T/T, High Tumor Burden
[10] = PSMB1/I208N: T/T, ≦65 years old
[11] = PSMB1/P11A: C/G, European Union
[12] = PSMB1/P11A: C/G, High Tumor Burden
[13] = PSMB1/P11A: G/G, >1 year since last anti-lymphoma treatment
[14] = PSMB1/P193L: C/C, >1 year since last anti-lymphoma treatment
[15] = PSMB1/P193L: C/C, Ann Arbor Stage IV
[16] = PSMB1/P193L: C/C, European Union
[17] = PSMB1/P193L: C/C, High Tumor Burden
[18] = PSMB1/P193L: C/C, ≦65 years old
[19] = PSMB2/E49X: G/G, >1 year since last anti-lymphoma treatment
[20] = PSMB2/E49X: G/G, Ann Arbor Stage IV
[21] = PSMB2/E49X: G/G, European Union
[22] = PSMB2/E49X: G/G, High Tumor Burden
[23] = PSMB2/G187V: G/G, >1 year since last anti-lymphoma treatment
[24] = PSMB2/G187V: G/G, Ann Arbor Stage IV
[25] = PSMB2/G187V: G/G, European Union
[26] = PSMB2/G187V: G/G, High Tumor Burden
[27] = PSMB2/G187V: G/G, ≦65 years old
[28] = PSMB2/L159F: C/C, >1 year since last anti-lymphoma treatment
[29] = PSMB2/L159F: C/C, Ann Arbor Stage IV
[30] = PSMB2/L159F: C/C, European Union
[31] = PSMB2/L159F: C/C, High Tumor Burden
[32] = PSMB2/L159F: C/C, ≦65 years old
[33] = PSMB5/L206M: C/C, >1 year since last anti-lymphoma treatment
[34] = PSMB5/L206M: C/C, Ann Arbor Stage IV

Substance: rituximab
- Median, Time to Next Anti-Lymphoma Therapy (P65 INTENSITY CYTOPLASMIC SIGNAL: ≧2+, ≦65 years old, IRC Review): 484
- Time to Next Anti-Lymphoma Therapy, Evt/N [1]: 98/165
- Time to Next Anti-Lymphoma Therapy, Median [1]: 688
- Time to Next Anti-Lymphoma Therapy, Evt/N [2]: 86/127
- Time to Next Anti-Lymphoma Therapy, Median [2]: 457
- Time to Next Anti-Lymphoma Therapy, Evt/N [3]: 75/119
- Time to Next Anti-Lymphoma Therapy, Median [3]: 675
- Time to Next Anti-Lymphoma Therapy, Evt/N [4]: 108/147
- Time to Next Anti-Lymphoma Therapy, Median [4]: 396
- Time to Next Anti-Lymphoma Therapy, Evt/N [5]: 130/198
- Time to Next Anti-Lymphoma Therapy, Median [5]: 489
- Time to Next Anti-Lymphoma Therapy, Evt/N [6]: 98/165
- Time to Next Anti-Lymphoma Therapy, Median [6]: 688
- Time to Next Anti-Lymphoma Therapy, Evt/N [7]: 86/127
- Time to Next Anti-Lymphoma Therapy, Median [7]: 457
- Time to Next Anti-Lymphoma Therapy, Evt/N [8]: 75/119
- Time to Next Anti-Lymphoma Therapy, Median [8]: 675
- Time to Next Anti-Lymphoma Therapy, Evt/N [9]: 108/147
- Time to Next Anti-Lymphoma Therapy, Median [9]: 396
- Time to Next Anti-Lymphoma Therapy, Evt/N (PSMB1/I208N: T/T, No Subgroup): 173/276
- Time to Next Anti-Lymphoma Therapy, Median (PSMB1/I208N: T/T, No Subgroup): 546
- Time to Next Anti-Lymphoma Therapy, Evt/N [10]: 130/198
- Time to Next Anti-Lymphoma Therapy, Median [10]: 489
- Time to Next Anti-Lymphoma Therapy, Evt/N [11]: 34/49
- Time to Next Anti-Lymphoma Therapy, Median [11]: 462
- Time to Next Anti-Lymphoma Therapy, Evt/N (PSMB1/P11A: C/G, Female): 42/75
- Time to Next Anti-Lymphoma Therapy, Median (PSMB1/P11A: C/G, Female): 546
- Time to Next Anti-Lymphoma Therapy, Evt/N [12]: 49/72
- Time to Next Anti-Lymphoma Therapy, Median [12]: 358
- Time to Next Anti-Lymphoma Therapy, Evt/N (PSMB1/P11A: C/G, No Subgroup): 78/127
- Time to Next Anti-Lymphoma Therapy, Median (PSMB1/P11A: C/G, No Subgroup): 550
- Time to Next Anti-Lymphoma Therapy, Evt/N (PSMB1/P11A: C/G, Other): 2/3
- Time to Next Anti-Lymphoma Therapy, Median (PSMB1/P11A: C/G, Other): 164
- Time to Next Anti-Lymphoma Therapy, Evt/N (PSMB1/P11A: C/G, White): 67/111
- Time to Next Anti-Lymphoma Therapy, Median (PSMB1/P11A: C/G, White): 581
- Time to Next Anti-Lymphoma Therapy, Evt/N (PSMB1/P11A: C/G, ≦65 years old): 63/96
- Time to Next Anti-Lymphoma Therapy, Median (PSMB1/P11A: C/G, ≦65 years old): 546
- Time to Next Anti-Lymphoma Therapy, Evt/N [13]: 17/20
- Time to Next Anti-Lymphoma Therapy, Median [13]: 429
- Time to Next Anti-Lymphoma Therapy, Evt/N (PSMB1/P11A: G/G, Male): 17/19
- Time to Next Anti-Lymphoma Therapy, Median (PSMB1/P11A: G/G, Male): 421
- Time to Next Anti-Lymphoma Therapy, Evt/N (PSMB1/P11A: G/G, No Subgroup): 30/37
- Time to Next Anti-Lymphoma Therapy, Median (PSMB1/P11A: G/G, No Subgroup): 436
- Time to Next Anti-Lymphoma Therapy, Evt/N (PSMB1/P11A: G/G, White): 27/32
- Time to Next Anti-Lymphoma Therapy, Median (PSMB1/P11A: G/G, White): 421
- Time to Next Anti-Lymphoma Therapy, Evt/N (PSMB1/P11A: G/G, ≦65 years old): 21/25
- Time to Next Anti-Lymphoma Therapy, Median (PSMB1/P11A: G/G, ≦65 years old): 409
- Time to Next Anti-Lymphoma Therapy, Evt/N [14]: 98/165
- Time to Next Anti-Lymphoma Therapy, Median [14]: 688
- Time to Next Anti-Lymphoma Therapy, Evt/N [15]: 86/127
- Time to Next Anti-Lymphoma Therapy, Median [15]: 457
- Time to Next Anti-Lymphoma Therapy, Evt/N [16]: 75/119
- Time to Next Anti-Lymphoma Therapy, Median [16]: 675
- Time to Next Anti-Lymphoma Therapy, Evt/N [17]: 108/147
- Time to Next Anti-Lymphoma Therapy, Median [17]: 396
- Time to Next Anti-Lymphoma Therapy, Evt/N (PSMB1/P193L: C/C, No Subgroup): 173/276
- Time to Next Anti-Lymphoma Therapy, Median (PSMB1/P193L: C/C, No Subgroup): 546
- Time to Next Anti-Lymphoma Therapy, Evt/N [18]: 130/198
- Time to Next Anti-Lymphoma Therapy, Median [18]: 489
- Time to Next Anti-Lymphoma Therapy, Evt/N [19]: 98/165
- Time to Next Anti-Lymphoma Therapy, Median [19]: 688
- Time to Next Anti-Lymphoma Therapy, Evt/N [20]: 86/127
- Time to Next Anti-Lymphoma Therapy, Median [20]: 457
- Time to Next Anti-Lymphoma Therapy, Evt/N [21]: 75/119
- Time to Next Anti-Lymphoma Therapy, Median [21]: 675
- Time to Next Anti-Lymphoma Therapy, Evt/N [22]: 108/147
- Time to Next Anti-Lymphoma Therapy, Median [22]: 396
- Time to Next Anti-Lymphoma Therapy, Evt/N (PSMB2/E49X: G/G, No Subgroup): 173/276
- Time to Next Anti-Lymphoma Therapy, Median (PSMB2/E49X: G/G, No Subgroup): 546
- Time to Next Anti-Lymphoma Therapy, Evt/N (PSMB2/E49X: G/G, ≦65 years old): 130/198
- Time to Next Anti-Lymphoma Therapy, Median (PSMB2/E49X: G/G, ≦65 years old): 489
- Time to Next Anti-Lymphoma Therapy, Evt/N [23]: 98/165
- Time to Next Anti-Lymphoma Therapy, Median [23]: 688
- Time to Next Anti-Lymphoma Therapy, Evt/N [24]: 86/127
- Time to Next Anti-Lymphoma Therapy, Median [24]: 457
- Time to Next Anti-Lymphoma Therapy, Evt/N [25]: 75/119
- Time to Next Anti-Lymphoma Therapy, Median [25]: 675
- Time to Next Anti-Lymphoma Therapy, Evt/N [26]: 108/147
- Time to Next Anti-Lymphoma Therapy, Median [26]: 396
- Time to Next Anti-Lymphoma Therapy, Evt/N (PSMB2/G187V: G/G, No Subgroup): 173/276
- Time to Next Anti-Lymphoma Therapy, Median (PSMB2/G187V: G/G, No Subgroup): 546
- Time to Next Anti-Lymphoma Therapy, Evt/N [27]: 130/198
- Time to Next Anti-Lymphoma Therapy, Median [27]: 489
- Time to Next Anti-Lymphoma Therapy, Evt/N [28]: 98/165
- Time to Next Anti-Lymphoma Therapy, Median [28]: 688
- Time to Next Anti-Lymphoma Therapy, Evt/N [29]: 86/127
- Time to Next Anti-Lymphoma Therapy, Median [29]: 457
- Time to Next Anti-Lymphoma Therapy, Evt/N [30]: 75/119
- Time to Next Anti-Lymphoma Therapy, Median [30]: 675
- Time to Next Anti-Lymphoma Therapy, Evt/N [31]: 108/147
- Time to Next Anti-Lymphoma Therapy, Median [31]: 396
- Time to Next Anti-Lymphoma Therapy, Evt/N (PSMB2/L159F: C/C, No Subgroup): 173/276
- Time to Next Anti-Lymphoma Therapy, Median (PSMB2/L159F: C/C, No Subgroup): 546
- Time to Next Anti-Lymphoma Therapy, Evt/N [32]: 130/198
- Time to Next Anti-Lymphoma Therapy, Median [32]: 489
- Time to Next Anti-Lymphoma Therapy, Evt/N [33]: 98/165
- Time to Next Anti-Lymphoma Therapy, Median [33]: 688
- Time to Next Anti-Lymphoma Therapy, Evt/N [34]: 86/127
- Time to Next Anti-Lymphoma Therapy, Median [34]: 457
- Time to Next Anti-Lymphoma Therapy, Evt/N (PSMB5/L206M: C/C, European Union): 75/119
